Experiments:
M4 knockout mice = settings: not the other four mAChR subtypes; cited from earlier work
[1] = tested on: haloperidol-induced catalepsy; test: haloperidol-induced catalepsy in mice; format: in vivo
Source text: Furthermore, haloperidol-induced catalepsy, a model of parkinsonian motor disability, is reduced in M4 knockout mice as compared to wild-type controls. […] The reversal by scopolamine was uncommonly robust and more pronounced than we observe with agents targeting a number of other targets being evaluated for potential antiparkinsonian effects, including metabotropic glutamate (mGlu) receptors mGlu4 or mGlu5, A2A adenosine receptors, and NMDA receptors. […] Taken together with the extensive studies of M4 modulation of basal ganglia and motor function, these studies provide compelling evidence that M4 is the dominant mAChR subtype involved in the antiparkinsonian effects of non-selective mAChR antagonists and provide support for discovery and development of selective M4 antagonists for treatment of neurodegenerative disease such as PD, dystonia, tardive dyskinesia and other movement disorders.

human mAChR M4 = biological target: T1, human mAChR M4 (Homo sapiens, UniProt P08173); test: mAChR M4 cell-based functional assay (calcium flux, decrease of EC80 acetylcholine response); settings: for remaining activity at 30 µM: % ACh maximum at 30 μM, human M4, read-out: Emin; for IC50: M4/Gqi5/CHO-K1 cells, decrease of response to EC80 acetylcholine
T1 construct: expressed in transfected cells; host or cells: CHO-K1 (ATCC), stably co-expressing the chimeric G protein Gqi5
T1 sequence (P08173 1-479): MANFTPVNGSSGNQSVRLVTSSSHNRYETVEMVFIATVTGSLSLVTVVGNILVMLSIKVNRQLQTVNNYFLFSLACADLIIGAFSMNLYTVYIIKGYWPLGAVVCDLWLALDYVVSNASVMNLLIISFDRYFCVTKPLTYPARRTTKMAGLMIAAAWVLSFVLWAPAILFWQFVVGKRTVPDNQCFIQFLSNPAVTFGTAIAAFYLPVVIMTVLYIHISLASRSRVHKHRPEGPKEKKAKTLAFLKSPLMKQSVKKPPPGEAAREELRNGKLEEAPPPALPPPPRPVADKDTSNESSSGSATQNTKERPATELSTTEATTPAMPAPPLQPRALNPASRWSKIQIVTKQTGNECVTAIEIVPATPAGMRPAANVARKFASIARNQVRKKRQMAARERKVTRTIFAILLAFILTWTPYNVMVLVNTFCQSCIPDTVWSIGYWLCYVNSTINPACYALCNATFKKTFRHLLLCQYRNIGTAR
Method: Human or rat M4 cDNA, along with the chimeric G protein Gqi5, were transfected into Chinese hamster ovary (CHO-K1) cells purchased from the American Type Culture Collection using Lipofectamine2000. M4/Gqi5/CHO cells were grown in Ham's F-12 medium containing 10% heat-inactivated fetal bovine serum (FBS), 20 mM HEPES, 500 μg/mL G418 sulfate, and 200 μg/mL Hygromycin B.
For high throughput measurement of agonist-evoked increases in intracellular calcium, CHO-K1 cells stably expressing muscarinic receptors were plated in growth medium lacking G418 and hygromycin at 15,000 cells/20 μL/well in Greiner 384-well black-walled, tissue culture (TC)-treated, clear-bottom plates (VWR). Cells were incubated overnight at 37° C. and 5% CO2. The next day, cells were washed using an ELX 405 (BioTek) with assay buffer: the final volume was then aspirated to 20 μL. Next, 20 μL of a 2.3 μM stock of Fluo-4/acetoxymethyl ester (Invitrogen, Carlsbad, Calif.), prepared as a 2.3 mM stock in DMSO and mixed in a 1:1 ratio with 10% (w/v) Pluronic F-127 and diluted in assay buffer, was added to the wells and the cell plates were incubated for 50 min at 37° C. and 5% CO2. Dye was removed by washing with the ELX 405 and the final volume was aspirated to 20 μL. Compound master plates were formatted in a 10 point concentration-response curve (CRC) format (1:3 dilutions) in 100% DMSO with a starting concentration of 10 or 1 mM using a BRAVO liquid handler (Agilent). Test compound CRCs were then transferred to daughter plates (240 nL) using the Echo acoustic plate reformatter (Labcyte, Sunnyvale, Calif.) and then diluted into assay buffer (40 μL) to a 2× stock using a Thermo Fisher Combi (Thermo Fisher Scientific, Waltham, Mass.).
Calcium flux was measured using the Functional Drug Screening System (FDSS) 6000 or 7000 (Hamamatsu Corporation, Tokyo, Japan) as an increase in the fluorescent static ratio. Compounds were applied to cells (20 μL, 2×) using the automated system of the FDSS at 2 seconds into the protocol and the data were collected at 1 Hz. At 143 s, 10 μL of an EC20 concentration of the muscarinic receptor agonist acetylcholine was added (5×), followed by the addition of 12 μL of an EC80 concentration of acetylcholine at the 268 s time point (5×). Agonist activity was analyzed as a concentration-dependent increase in calcium mobilization upon compound addition. Positive allosteric modulator activity was analyzed as a concentration-dependent increase in the EC20 acetylcholine response. Antagonist activity was analyzed as a concentration-dependent decrease in the EC80 acetylcholine response; for the purposes of the tables herein, an IC50 (inhibitory concentration 50) was calculated as a concentration-dependent decrease of the response elicited by an EC80 concentration of acetylcholine. Concentration-response curves were generated using a four-parameter logistical equation in XLFit curve fitting software (IDBS, Bridgewater, N.J.) for Excel (Microsoft, Redmond, Wash.) or Prism (GraphPad Software, Inc., San Diego, Calif.) or the Dotmatics software platform (Dotmatics, Bishop's Stortford, UK).
Compounds were synthesized as described above. Activity (IC50 and Emin) was determined in the mAChR M4 cell-based functional assay as described above and the data are shown in Table 4. The compound numbers correspond to those used in Examples 1-4 and Tables 1-3.

Structure (SMILES) | locomotor-activating effects (M4 knockout mice) | reduction of catalepsy induced by haloperidol ([1]; M4 KO mice) | reversal of catalepsy induced by haloperidol ([1]; WT mice) | remaining activity at 30 µM (human mAChR M4) [%] | IC50 (human mAChR M4) [nM]
CN1[C@@H]2C[C@@H](OC(=O)[C@H](CO)c3ccccc3)C[C@H]1[C@@H]1O[C@@H]12 [scopolamine] | dramatically reduced | ineffective | completely reversed |  | 
Cc1cnn(C)c1-c1ccc(NCC2CC3(C2)CN(CCC(C)(C)C)C3)nn1 [Compound 11, 6-(1,4-Dimethyl-1H-pyrazol-5-yl)-N-((2-(3,3-dimethylbutyl)-2-azaspiro[3.3]heptan-6-yl)methyl)pyridazin-3-amine] |  |  |  | 6.5 | 1350
CC(=O)Nc1ccc(-c2ccc(NC3CC4(C3)CN(CCC(C)(C)C)C4)nn2)cc1 [Compound 1, N-(4-(6-((2-(3,3-Dimethylbutyl)-2-azaspiro[3.3]heptan-6-yl)amino)pyridazin-3-yl)phenyl)acetamide] |  |  |  | 9.8 | 1310

Source: patent US11325896B2, “Antagonists of the muscarinic acetylcholine receptor M4” (Vanderbilt University, priority 2017, dated 2022)
